Assay results: US8207216B2, “Benzofuran-3-yl(indol-3-yl) maleimides as potent GSK3 inhibitors” (The Board of Trustees of the University of Illinois, priority 2006, dated 2012)

What was measured:
C57BL/6J mice = assay: Amphetamine/chlordiazepoxide hyperactivity model of mania, open field locomotor activity; format: in vivo; details: 5-ING-135 50 mg/kg, 5 min pretreatment; amphetamine 4 mg/kg + chlordiazepoxide 2.5 mg/kg; 60 min
Description: Hyperactivity models are often used to mimic the mania associated with bipolar disorder.
Certain benzofuran-based ligands of this invention were studied in a novel mouse model of mania that has recently been validated with several clinically effective mood stabilizers. […] Mice were then injected with amphetamine (4 mg/kg) or amphetamine (4 mg/kg) and chlordiazepoxide (2.5 mg/kg) and locomotor activity was monitored for 60 min. The open field is a square box surrounded by an array of infra-red beams and their behavior is automatically recorded for 60 minutes in the open field test chamber (10.75″×10.75″×8″H with infra-red (I/R) array, model ENV 510, MED Associates). After this period the animals were returned to their home cages and then to the main colony.
Control treatments are as indicated. FIG. 1B illustrates similar locomotion activity data of treated mice measured in cm over 5 minute intervals for 60 minutes.

[1] = biological target: T1, recombinant human His6-GSK-3β (Homo sapiens, UniProt P49841); assay: GSK-3β kinase assay, [γ32P] transfer to primed glycogen synthase peptide; format: biochemical; details: 10 μM ATP; 10 μM pGSM peptide; 30 minutes at 30° C.; read-out: IC50 (nM), GSK-3β inhibition;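 further: phosphate incorporation quantified by liquid scintillation counting of the filters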
T1 construct: His6; purchased EMD Biosciences
T1 sequence (P49841 whole entry): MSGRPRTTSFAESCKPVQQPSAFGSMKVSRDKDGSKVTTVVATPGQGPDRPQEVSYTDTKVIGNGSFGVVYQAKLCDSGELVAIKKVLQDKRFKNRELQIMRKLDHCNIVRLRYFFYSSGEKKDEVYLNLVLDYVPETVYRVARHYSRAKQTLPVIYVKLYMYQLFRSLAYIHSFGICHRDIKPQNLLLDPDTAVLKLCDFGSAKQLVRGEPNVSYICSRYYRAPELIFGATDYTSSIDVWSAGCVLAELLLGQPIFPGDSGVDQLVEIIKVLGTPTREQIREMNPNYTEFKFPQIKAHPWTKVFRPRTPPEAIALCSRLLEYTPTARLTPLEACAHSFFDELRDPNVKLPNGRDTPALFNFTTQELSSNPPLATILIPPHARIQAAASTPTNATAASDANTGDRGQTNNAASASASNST

CDK2 = CDK2 (Homo sapiens, UniProt P24941); assay: Inhibition of various kinases (% inhibition); format: biochemical
Description: (§1) Additional examples of selectivity are illustrated in Table 4.

GSK3α = GSK3α (Homo sapiens, UniProt P49840); assay: Inhibition of various kinases (% inhibition); format: biochemical
Sequence of GSK3α (P49840 whole entry, species assumed): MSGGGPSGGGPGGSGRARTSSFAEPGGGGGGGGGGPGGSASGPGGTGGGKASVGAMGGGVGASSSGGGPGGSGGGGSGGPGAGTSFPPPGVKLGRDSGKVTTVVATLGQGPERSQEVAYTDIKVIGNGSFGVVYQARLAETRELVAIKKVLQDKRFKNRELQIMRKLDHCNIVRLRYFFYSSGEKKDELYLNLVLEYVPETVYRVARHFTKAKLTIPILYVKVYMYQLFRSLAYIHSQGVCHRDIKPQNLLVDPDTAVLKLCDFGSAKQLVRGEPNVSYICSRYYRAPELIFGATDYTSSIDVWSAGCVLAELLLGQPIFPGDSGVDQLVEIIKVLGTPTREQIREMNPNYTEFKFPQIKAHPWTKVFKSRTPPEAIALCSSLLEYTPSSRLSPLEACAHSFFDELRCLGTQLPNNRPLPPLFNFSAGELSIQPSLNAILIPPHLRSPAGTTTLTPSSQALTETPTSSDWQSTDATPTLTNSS
Description: as §1

PKCβ2 = PKCβ2 (Homo sapiens, UniProt P05771); assay: Inhibition of various kinases (% inhibition); format: biochemical
Sequence of PKCβ2 (P05771 1-673 isoform P05771-2): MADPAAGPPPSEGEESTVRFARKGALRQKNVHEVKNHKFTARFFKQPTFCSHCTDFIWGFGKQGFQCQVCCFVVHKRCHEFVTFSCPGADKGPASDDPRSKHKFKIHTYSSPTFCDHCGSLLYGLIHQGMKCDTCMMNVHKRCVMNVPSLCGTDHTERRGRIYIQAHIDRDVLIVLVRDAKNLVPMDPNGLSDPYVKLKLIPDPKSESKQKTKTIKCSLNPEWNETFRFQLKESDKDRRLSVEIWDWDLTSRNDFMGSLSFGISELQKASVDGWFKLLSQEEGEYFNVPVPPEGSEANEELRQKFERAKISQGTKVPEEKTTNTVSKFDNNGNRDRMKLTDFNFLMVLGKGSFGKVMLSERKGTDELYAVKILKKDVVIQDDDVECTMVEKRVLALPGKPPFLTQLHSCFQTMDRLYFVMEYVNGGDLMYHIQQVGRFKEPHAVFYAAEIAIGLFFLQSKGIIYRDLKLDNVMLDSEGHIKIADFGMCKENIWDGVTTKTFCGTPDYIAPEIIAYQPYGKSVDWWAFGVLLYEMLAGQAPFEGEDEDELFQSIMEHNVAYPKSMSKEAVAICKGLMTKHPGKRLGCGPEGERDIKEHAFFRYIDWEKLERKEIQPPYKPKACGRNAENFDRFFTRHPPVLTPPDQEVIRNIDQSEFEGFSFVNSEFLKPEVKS
Description: as §1

PDK1 = biological target: T2, PDK1 (Homo sapiens, UniProt O15530); assay: Inhibition of various kinases (% inhibition); format: biochemical
T2 sequence (O15530 1-556): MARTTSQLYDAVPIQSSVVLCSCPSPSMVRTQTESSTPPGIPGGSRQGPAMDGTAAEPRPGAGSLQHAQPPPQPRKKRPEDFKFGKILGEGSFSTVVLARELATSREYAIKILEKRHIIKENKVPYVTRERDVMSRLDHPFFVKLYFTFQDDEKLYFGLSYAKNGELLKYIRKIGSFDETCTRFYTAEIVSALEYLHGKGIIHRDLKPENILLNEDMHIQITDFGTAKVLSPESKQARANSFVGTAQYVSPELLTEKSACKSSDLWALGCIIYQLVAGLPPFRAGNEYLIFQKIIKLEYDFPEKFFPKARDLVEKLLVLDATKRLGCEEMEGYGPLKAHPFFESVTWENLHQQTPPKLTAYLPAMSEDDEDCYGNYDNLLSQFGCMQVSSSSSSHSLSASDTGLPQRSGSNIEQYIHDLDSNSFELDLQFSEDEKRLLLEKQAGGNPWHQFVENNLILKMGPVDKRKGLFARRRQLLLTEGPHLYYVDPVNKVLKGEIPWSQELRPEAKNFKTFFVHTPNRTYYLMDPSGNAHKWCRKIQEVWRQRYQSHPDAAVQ
Description: as §1

[2] = system: pancreatic cancer cell lines; assay: Proliferation and survival of pancreatic cancer cells (overall statements); format: cell-based; details: based on data of Table 5
Description: The pancreatic cancer cell lines BxPc-3, HupT3, MiaPaCa-2, Panc 04.03, and SU86.86 were obtained from ATCC (Rockville, Md.) and were grown in medium (DMEM or RPMI) containing 10% fetal calf serum and L-glutamine. Pancreatic cancer cells were plated out in duplicate into 6-wells of a 96-well microtiter plate at 2.5−4×10^3 cells per well. Four-hours post plating, individual wells were treated with diluent (DMSO) or varying concentrations of commercial compounds, AR-A014418 and SB216763, or the indicated GSK inhibitors of this invention from a concentration of 1 nM to 50 microM. […] The IC50s were calculated using XLfit (IDBS Limited, Guildford, UK).

MIAPaCa-2 = assay: Antiproliferation MTS assay, pancreatic cancer cells; format: cell-based; details: Homo sapiens
HupT3 = assay: as above; format: cell-based; details: Homo sapiens
BXPC-3 = assay: as above; format: cell-based; details: Homo sapiens
[3] = MIA PaCa-2, as reported in Gaisina et al. (2009) J. Med. Chem. 52(7), 1853-1863
[4] = HuP-T3, as reported in Gaisina et al. (2009) J. Med. Chem. 52(7), 1853-1863
[5] = BXPC-3, as reported in Gaisina et al. (2009) J. Med. Chem. 52(7), 1853-1863

| Compound | IC50 [1] [nM] | IC50 (MIAPaCa-2; [3]) [µM] | IC50 (MIAPaCa-2; MIA PaCa-2, 72 hrs, MTS) [µM] | IC50 (HupT3; [4]) [µM] | IC50 (BXPC-3; [5]) [µM] | IC50 (HupT3; HuP-T3, 72 hrs, MTS) [µM] | IC50 (BXPC-3; BXPC-3, 72 hrs, MTS) [µM] | Inhibition of hyperactivity produced by amphetamine/chlordiazepoxide (locomotor activity) (C57BL/6J mice) | inhibition at 1 µM (CDK2) [%] | inhibition at 10 µM (CDK2) [%] | inhibition at 1 µM (GSK3α) [%] | inhibition at 10 µM (GSK3α) [%] | inhibition at 1 µM (PKCβ2) [%] | inhibition at 10 µM (PKCβ2) [%] | inhibition at 1 µM (PDK1) [%] | inhibition at 10 µM (PDK1) [%] | Inhibition of pancreatic cancer cell proliferation compared with AR-A014418 and SB216768 [2] |
| --- | --- | --- | --- | --- | --- | --- | --- | --- | --- | --- | --- | --- | --- | --- | --- | --- | --- |
| C#CCOc1ccc2c(C3=C(c4cn(C)c5ccc(Br)cc45)C(=O)NC3=O)coc2c1 [Compound 23, 3-(5-Bromo-1-methyl-1H-indol-3-yl)-4-(6-prop-2-ynyloxy-benzofuran-3-yl)-pyrrole-2,5-dione] | 25.3 ± 2.4 | – | – | – | – | – | – | – | 22 | 66 | 84 | 99 | 3 | 25 | 12 | 45 | – |
| Cn1cc(C2=C(c3coc4ccccc34)C(=O)NC2=O)c2cc(F)c(Cl)cc21 [Compound 12, 3-Benzofuran-3-yl-4-(6-chloro-5-fluoro-1-methyl-1H-indol-3-yl)-pyrrole-2,5-dione] | 184 ± 31 | 3 ± 0.4 | < 1 | 2 ± 0.3 | 2 ± 0.2 | – | – | – | – | – | – | – | – | – | – | – | more effective inhibition of pancreatic cancer cell proliferation than these reference compounds |
| O=C1NC(=O)C(c2cn(CCCO)c3ccc(Br)cc23)=C1c1coc2ccccc12 [Compound 21, 3-Benzofuran-3-yl-4-[5-bromo-1-(3-hydroxy-propyl)-1H-indol-3-yl]-pyrrole-2,5-dione] | 1.61 ± 0.09 | – | – | – | – | – | – | – | 62 | 95 | 62 | 99 | 62 | 83 | 80 | 92 | – |

Second part, led by results:

| IC50 [1] [nM] | IC50 (MIAPaCa-2; [3]) [µM] | IC50 (MIAPaCa-2; MIA PaCa-2, 72 hrs, MTS) [µM] | IC50 (HupT3; [4]) [µM] | IC50 (BXPC-3; [5]) [µM] | IC50 (HupT3; HuP-T3, 72 hrs, MTS) [µM] | IC50 (BXPC-3; BXPC-3, 72 hrs, MTS) [µM] | Compound | Inhibition of hyperactivity produced by amphetamine/chlordiazepoxide (locomotor activity) (C57BL/6J mice) | inhibition at 1 µM (CDK2) [%] | inhibition at 10 µM (CDK2) [%] | inhibition at 1 µM (GSK3α) [%] | inhibition at 10 µM (GSK3α) [%] | inhibition at 1 µM (PKCβ2) [%] | inhibition at 10 µM (PKCβ2) [%] | inhibition at 1 µM (PDK1) [%] | inhibition at 10 µM (PDK1) [%] | Inhibition of pancreatic cancer cell proliferation compared with AR-A014418 and SB216768 [2] |
| --- | --- | --- | --- | --- | --- | --- | --- | --- | --- | --- | --- | --- | --- | --- | --- | --- | --- |
| 14 ± 3 | – | – | – | – | – | – | Cn1cc(C2=C(c3coc4ccc(F)cc34)C(=O)NC2=O)c2ccc(O)cc21 [Compound 46, 3-(5-Fluoro-benzofuran-3-yl)-4-(6-hydroxy-1-methyl-1H-indol-3-yl)-pyrrole-2,5-dione] | exhibited inhibition of the hyperactivity | – | – | – | – | – | – | – | – | – |
| 314 ± 19 | 17 ± 3.2 | 17 | 6 ± 0.7 | – | 6 | 7 | Cn1cc(C2=C(c3coc4cc(F)c(F)cc34)C(=O)NC2=O)c2ccc3ccccc3c21 [Compound 55, 3-(5,6-Difluoro-benzofuran-3-yl)-4-(1-methyl-1H-benzo[g]indol-3-yl)-pyrrole-2,5-dione] | – | – | – | – | – | – | – | – | – | more effective inhibition of pancreatic cancer cell proliferation than these reference compounds |
| 831 ± 77 | 8 ± 1.2 | 8 | 6 ± 0.5 | 6 ± 0.8 | 6 | 6 | COc1cccc2c(C3=C(c4cn(C)c5cc(C(F)(F)F)ccc45)C(=O)NC3=O)coc12 [Compound 49, 3-(7-Methoxy-benzofuran-3-yl)-4-(1-methyl-6-trifluoromethyl-1H-indol-3-yl)-pyrrole-2,5-dione] | – | – | – | – | – | – | – | – | – | more effective inhibition of pancreatic cancer cell proliferation than these reference compounds |
